Experimental findings from BindingDB's records for doi:10.1021/jm9811256 (Academy of Sciences of The Czech Republic, 1999) are described below.

Where only a bound is given, the exact number is not on record here.

Assay [1] is described as follows: Inhibitory activity against varicella zoster virus thymidine kinase (VZV TK+) YS strain.
Assay [2] is described as follows: Inhibitory activity against herpes simplex virus type 1 (HSV-1) thymidine kinase (TK) VMW 1837 strain.
Assay [3] in a line: Inhibitory activity against varicella zoster virus thymidine kinase (VZV TK-) 07/1 strain.
A short description of assay [4]: Inhibitory activity against varicella zoster virus thymidine kinase (VZV TK+) OKA strain.
Assay [5] in a line: Inhibition of herpes simplex virus type 1 thymidine kinase (HSV-1 TK-) B2006 strain.

As for `Nc1nccc(OCCOCP(=O)(O)O)n1`, the EC50 (usually the concentration that produces a half-maximal response) in assay [1] was greater than 401 µM; in assay [2] it was greater than 802 µM; in assay [3], greater than 401 µM; in assay [4] it was greater than 401 µM.

`CC(C)OP(=O)(COCCn1cnc2c(N)nc(Cl)nc21)OC(C)C`: the EC50 was 9.44 µM in assay [1] and 1.27 µM in assay [4].

As to `CC(C)OP(=O)(COCCn1cnc2c(N)nc(N)nc21)OC(C)C`, the EC50 is 96.6 µM in assay [1]; 214 µM in assay [2]; 644 µM in assay [5]; greater than 134 µM in assay [3]; greater than 134 µM in assay [4].

For `Nc1nc(O)c2nc(Br)n(CCOCP(=O)(O)O)c2n1`, the EC50 was 48.9 µM in assay [1]; 130 µM in assay [2]; greater than 1080 µM in assay [5]; 76 µM in assay [3]; 10.8 µM in assay [4].

For the compound `Nc1nc(Cl)nc2c1ncn2CCOCP(=O)(O)O`, the EC50 in assay [1] is 104 µM; in assay [3], 61.7 µM; in assay [4], 130 µM.

As for `Nc1ccn(CCOCP(=O)(O)O)c(=O)n1`, the EC50 in assay [1] is 1600 µM; in assay [2] it was 401 µM; in assay [3], 602 µM; in assay [4], 602 µM.

Take `CCOP(=O)(O)COCCn1cnc2c(N)ncnc21`: the EC50 in assay [1] came out at 199 µM; in assay [2], 497 µM; in assay [5], 497 µM; in assay [3], 149 µM; in assay [4], 132 µM.

As to `Nc1cc(N)c2ncn(CCOCP(=O)(O)O)c2n1`, the EC50 in assay [1] is greater than 174 µM; in assay [2], 243 µM; in assay [5], 522 µM; in assay [3], greater than 174 µM; in assay [4], greater than 174 µM.

On to `CC(C)OP(=O)(O)COCCn1cnc2c(N)nc(N)nc21`, for which the EC50 in assay [1] is greater than 151 µM; in assay [2], greater than 1210 µM; in assay [5], greater than 1210 µM; in assay [3] it was greater than 151 µM; in assay [4], 96.8 µM.

With `Nc1ccn(CCOCP(=O)(O)O)c(=O)c1`, the EC50 in assay [1] is 261 µM; in assay [3] it was 302 µM; in assay [4] it was greater than 402 µM.

`Nc1nc(=O)ccn1CCOCP(=O)(O)O`: the results for the EC50 in assay [1], in assay [3] and in assay [4] were 160 µM, greater than 401 µM and greater than 401 µM, respectively.

Consider `Nc1ncc2ncn(CCOCP(=O)(O)O)c2n1`, for which the EC50 in assay [1] was 102 µM; in assay [2], 256 µM; in assay [3], 98.8 µM; in assay [4] it was 219 µM.

With `CC(C)CCCCCOP(=O)(COCCn1cnc2nc(N)nc(Cl)c21)OCCCCCC(C)C`, the concentration giving a half-maximal response (EC50) in assay [1] is greater than 9.39 µM; in assay [2], greater than 30 µM; in assay [5], greater than 30 µM; in assay [3] it was greater than 9.39 µM; in assay [4], greater than 9.39 µM.

As to `CC(C)OP(=O)(COCCn1c(Br)nc2c(O)nc(N)nc21)OC(C)C`, the concentration giving a half-maximal response (EC50) is greater than 110 µM in assay [1]; 530 µM in assay [2]; greater than 884 µM in assay [5]; greater than 110 µM in assay [3]; greater than 110 µM in assay [4].

As to `CC(C)CCCCCOP(=O)(COCCn1cnc2c(N)nc(N)nc21)OCCCCCC(C)C`, the EC50 in assay [1] was 6.24 µM; in assay [2], greater than 31.2 µM; in assay [5], greater than 31.2 µM; in assay [3] it was greater than 39 µM; in assay [4], greater than 9.75 µM.

Consider `CC(C)OP(=O)(O)COCCn1cnc2c(N)ncnc21`, for which the EC50 in assay [1] is greater than 158 µM; in assay [2] it was 951 µM; in assay [5], greater than 1260 µM; in assay [3], greater than 158 µM; in assay [4], greater than 158 µM.

Turning to `Nc1nc(=O)n(CCOCP(=O)(O)O)cc1Br`, the EC50 in assay [1] was found to be 15.2 µM; in assay [2] it was 60.9 µM; in assay [5] it was 914 µM; in assay [3], 9.14 µM; in assay [4] it was 18.2 µM.

As for `CC(C)OP(=O)(COCCn1ncc(N)nc1=O)OC(C)C`, the values for the EC50 in assay [1], in assay [3] and in assay [4] were 290 µM, 239 µM and greater than 299 µM, respectively.

Take `Nc1cc2ncn(CCOCP(=O)(O)O)c2c(O)n1`: the EC50 in assay [2] and in assay [5] was greater than 693 µM throughout.

Take `Nc1ncnc2c1ccn2CCOCP(=O)(O)O`: the EC50 stood at 73.4 µM in assay [1], 551 µM in assay [2], 1100 µM in assay [5] and 183 µM in assay [4].

As to `Nc1nc(N)c2ncn(CCOCP(=O)(O)O)c2n1` [PMEDAP], the EC50 is 6.93 µM in assay [1], 6.93 µM in assay [2], 8.67 µM in assay [3] and 3.46 µM in assay [4].

For the compound `Nc1nc(O)nc2c1ncn2CCOCP(=O)(O)O`, the EC50 in assay [1] was greater than 172 µM; in assay [2], greater than 1380 µM; in assay [5] it was greater than 1380 µM; in assay [3] it was greater than 172 µM; in assay [4], greater than 172 µM.

For the compound `Nc1nc(F)nc2c1ncn2CCOCP(=O)(O)O`, the EC50 in assay [1] stood at 99.5 µM; in assay [2], 240 µM; in assay [5], 68.6 µM; in assay [3], 113 µM; in assay [4], 85.8 µM.

With `CC(C)OP(=O)(COCCn1cnc2c(Cl)nc(N)nc21)OC(C)C`, the values for the concentration for a half-maximal effect (EC50) in assay [1], in assay [3] and in assay [4] were 25.5 µM, 22.9 µM and 33.1 µM, respectively.

Consider `CC(C)OP(=O)(O)COCCn1cnc2c(O)nc(N)nc21`, for which the EC50 in assay [1] came to 0.0302 µM; in assay [2], 17.2 µM; in assay [5], 17.2 µM; in assay [3], 0.0151 µM; in assay [4], 0.0121 µM.

Consider `Nc1cnn(CCOCP(=O)(O)O)c(=O)n1`, for which the EC50 in assay [1], in assay [3] and in assay [4] was greater than 399 µM in each case.

On to `Nc1nc(O)c2c(ncn2CCOCP(=O)(O)O)n1`, for which the EC50 in assay [1] was greater than 172 µM; in assay [2], greater than 691 µM; in assay [5] it was greater than 691 µM; in assay [4], 152 µM.

Take `Cc1nc(N)nc2c1ncn2CCOCP(=O)(O)O`: the EC50 was greater than 174 µM in assay [1]; 696 µM in assay [2]; 522 µM in assay [5]; greater than 174 µM in assay [3]; greater than 174 µM in assay [4].

Regarding `Nc1ncnc2c1nc(Br)n2CCOCP(=O)(O)O`, the EC50 in assay [1], in assay [3] and in assay [4] was greater than 142 µM each time.

Turning to `CC(C)OP(=O)(COCCn1cnc2nc(N)nc(O)c21)OC(C)C`, the EC50 in assay [1] was greater than 133 µM; in assay [2], greater than 535 µM; in assay [5] it was greater than 535 µM; in assay [4], greater than 133 µM.

Turning to `Nc1nnc(N)c2c1ncn2CCOCP(=O)(O)O`, the EC50 was greater than 173 µM in assay [1]; 1040 µM in assay [2]; greater than 693 µM in assay [5]; greater than 173 µM in assay [3]; greater than 173 µM in assay [4].

Turning to `O=P(O)(O)COCCn1cnc2c(S)ncnc21`, the EC50 is greater than 172 µM in assay [1], greater than 1370 µM in assay [2], greater than 1370 µM in assay [5] and greater than 172 µM in assay [3].

On to `Nc1cccc2c1ncn2CCOCP(=O)(O)O`, for which the EC50 in assay [1] is greater than 184 µM; in assay [2], greater than 1470 µM; in assay [5] it was greater than 1470 µM; in assay [3], greater than 184 µM; in assay [4] it was greater than 184 µM.

With `CC(C)CCCCCOP(=O)(COCCn1cnc2c(Cl)nc(N)nc21)OCCCCCC(C)C`, the 50% effective concentration (EC50) in assay [1] was greater than 3.75 µM; in assay [2], greater than 30 µM; in assay [5], greater than 30 µM; in assay [3] it was greater than 3.75 µM; in assay [4], greater than 3.75 µM.

`NC1=NC2N=CC=NC2C(=O)N1CCOCP(=O)(O)O` (stereo not drawn): the EC50 in assay [1] stood at 115 µM; in assay [2] it was 230 µM; in assay [5], 230 µM; in assay [3], 98.9 µM; in assay [4], 26.3 µM.

Consider `CC(C)OP(=O)(COCCn1cnc2c(S)ncnc21)OC(C)C`, for which the EC50 in assay [1] is greater than 133 µM; in assay [2] it was greater than 1060 µM; in assay [5] it was greater than 1060 µM; in assay [3], greater than 133 µM; in assay [4], greater than 133 µM.

Turning to `CC(C)CCCCCOP(=O)(COCCn1cnc2c(N)ncnc21)OCCCCCC(C)C`, the EC50 in assay [1] is 4.01 µM; in assay [2], greater than 6.43 µM; in assay [5] it was greater than 6.43 µM; in assay [3] it was 6.63 µM; in assay [4] it was 4.82 µM.

`CCOP(=O)(O)COCCn1cnc2c(O)nc(N)nc21`: the EC50 in assay [1] is 0.0315 µM; in assay [2], 6.3 µM; in assay [5], 12.6 µM; in assay [3], 0.0126 µM; in assay [4], 0.0252 µM.

For the compound `CC(C)OP(=O)(COCCn1c(Br)nc2c(N)nc(N)nc21)OC(C)C`, the EC50 in assay [1] was greater than 110 µM; in assay [2], greater than 886 µM; in assay [5], greater than 886 µM; in assay [3] it was greater than 110 µM; in assay [4], 57.6 µM.

Consider `CCOP(=O)(O)COCCn1cnc2c(N)nc(N)nc21`, for which the EC50 in assay [1] came out at 15.8 µM; in assay [2] it was 474 µM; in assay [5], 632 µM; in assay [3], 6.32 µM; in assay [4], 12.6 µM.

With `Nc1nc(Cl)c2ncn(CCOCP(=O)(O)O)c2n1`, the EC50 amounted to 0.227 µM in assay [1]; 0.747 µM in assay [2]; 0.487 µM in assay [5]; 0.065 µM in assay [3]; 0.0195 µM in assay [4].

On to `Nc1nc(N)c2nc(Br)n(CCOCP(=O)(O)O)c2n1`, for which the concentration giving a half-maximal response (EC50) in assay [1] is 22.8 µM; in assay [2], 54.4 µM; in assay [5] it was 54.4 µM; in assay [3] it was 16.3 µM; in assay [4], 8.71 µM.

Consider `CC(C)OP(=O)(COCCn1cnc2c(O)nc(N)nc21)OC(C)C`, for which the half-maximal effective concentration (EC50) in assay [1] came out at 37.4 µM; in assay [2], 642 µM; in assay [5], 642 µM; in assay [3], 83 µM; in assay [4] it was 53.5 µM.

With `Nc1nccc2c1ncn2CCOCP(=O)(O)O`, the half-maximal effective concentration (EC50) is 367 µM in assay [1], 257 µM in assay [3] and 183 µM in assay [4].

On to `CSc1ncnc2c1ncn2CCOCP(=O)(O)O`, for which the results for the EC50 in assay [1], in assay [3] and in assay [4] were greater than 1310 µM, greater than 1310 µM and 164 µM, respectively.
